# According to patent publication US7465815B2, “Cannabinoid receptor modulator” (priority 2003, dated 2008):
# Like-named read-outs stand apart in the source and are kept apart here.
# What was measured:
# [1] = target: T1, human CB1 receptor (Homo sapiens, UniProt P21554); test: [3H]-CP55,940 binding inhibition assay, CHO cell membrane fraction expressing human CB1 receptor
# T1 construct: expressed in transfected cells; host or cells: CHO cells (membrane fraction)
# Protocol: (§1) [^3H]-CP55,940 binding assay with a cell membrane fraction expressing human CB1 and CB2 receptor
# (§2) [^3H]-CP55940 binding inhibition assay was conducted by incubating a CHO cell membrane fraction expressing human CB1 receptor and the test compound and 500 pM [^3H]-CP55940 in reaction buffer (50 mM Tris-HCl (pH7.4), 5 mM MgCl2, 2.5 mM EDTA and 0.5% BSA (fatty acid free)) at room temperature for 60 minutes. The reaction solution was filtered through GF/C filter, washed with 300 μl of washing buffer (50 mM Tris-HCl (pH7.4), 0.05% BSA (fatty acid free)) four times, and the radioactivity of the filter was measured with a Top Count scintillation counter (Packard). As results, the test compound has inhibited binding of [^3H]-CP55940 to the membrane fraction dose-dependently.
# (§3) The inhibitory activity of the test compound to [^3H]-CP55940 binding was calculated by percent on the basis that radioactivity is 100% when only 500 pM [^3H]-CP55940 was added, and 0% when 500 pM [^3H]-CP55940 and 100 nM CP55940 were added at the same time. Further, IC50 value of the test compound was calculated by analyzing concentrations and percents of the test compound with PRISM 3.0 (Graphpad Software, Inc.).
# [2] = target: T2, human CB2 receptor (Homo sapiens, UniProt P34972); test: [3H]-CP55,940 binding inhibition assay, CHO cell membrane fraction expressing human CB2 receptor
# T2 construct: expressed in transfected cells; host or cells: CHO cells (membrane fraction)
# Protocol: as §1, §2, §3
# The same assay was also conducted for a CHO cell membrane fraction expressing human CB2 receptor, and the inhibitory activity to [^3H]-CP55940 binding was calculated.
# [3] = target: T3, CB1 receptor (Mus musculus, UniProt P47746); test: Body temperature-lowering action on mouse (CB1 receptor agonistic activity in vivo); details: Jcl: ICR male mice, 1 mg/kg i.p., rectal temperature 30 minutes after administration, compared with control group
# T3 construct: from tissue; host or cells: whole animal, Jcl: ICR male mice
# Protocol: Body temperature-lowering action on mouse
# CB1 receptor agonistic activity of the compound of the present invention in vivo was evaluated by investigating the effect on the body temperature of mouse after the drug was administered to the mouse. In this experiment, Jcl: ICR male mice (5 weeks old) were used. After measuring the rectal temperature with a thermometer (Physitemp BAT-12) that was connected to a probe for measuring body temperature, the compound dissolved in 2.2% EtOH and 5% G2-β-cyclodextrin (solvent) was administered intraperitoneally. Solvent only was administered to the control group. 30 minutes after administration, rectal temperature was measured again. The experiment was conducted for 4 subjects per a group.
# T3 sequence (P47746 whole entry): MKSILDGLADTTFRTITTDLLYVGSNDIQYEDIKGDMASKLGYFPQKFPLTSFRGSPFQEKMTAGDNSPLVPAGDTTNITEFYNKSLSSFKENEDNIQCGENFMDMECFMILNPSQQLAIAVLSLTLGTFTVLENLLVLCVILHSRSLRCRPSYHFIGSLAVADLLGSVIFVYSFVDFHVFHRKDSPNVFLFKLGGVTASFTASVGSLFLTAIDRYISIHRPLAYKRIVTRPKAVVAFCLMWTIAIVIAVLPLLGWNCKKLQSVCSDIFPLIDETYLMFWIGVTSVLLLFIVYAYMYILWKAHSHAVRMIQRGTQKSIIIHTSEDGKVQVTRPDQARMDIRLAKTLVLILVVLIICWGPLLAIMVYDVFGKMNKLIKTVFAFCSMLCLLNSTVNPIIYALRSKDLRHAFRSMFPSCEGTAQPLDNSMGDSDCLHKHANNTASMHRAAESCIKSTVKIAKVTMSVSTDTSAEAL
# T1 sequence (P21554 whole entry): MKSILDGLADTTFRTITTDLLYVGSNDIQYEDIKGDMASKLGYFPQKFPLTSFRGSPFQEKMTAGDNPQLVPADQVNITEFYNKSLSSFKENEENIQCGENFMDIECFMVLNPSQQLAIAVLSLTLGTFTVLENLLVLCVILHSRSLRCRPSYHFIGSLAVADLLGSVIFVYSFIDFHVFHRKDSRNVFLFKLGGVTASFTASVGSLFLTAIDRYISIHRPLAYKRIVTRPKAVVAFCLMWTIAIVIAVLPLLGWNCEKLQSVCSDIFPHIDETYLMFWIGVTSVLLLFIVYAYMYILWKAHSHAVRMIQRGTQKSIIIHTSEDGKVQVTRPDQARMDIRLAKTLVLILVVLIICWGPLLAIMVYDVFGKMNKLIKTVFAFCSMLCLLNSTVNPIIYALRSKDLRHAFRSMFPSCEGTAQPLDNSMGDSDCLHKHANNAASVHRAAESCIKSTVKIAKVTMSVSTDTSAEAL
# T2 sequence (P34972 whole entry): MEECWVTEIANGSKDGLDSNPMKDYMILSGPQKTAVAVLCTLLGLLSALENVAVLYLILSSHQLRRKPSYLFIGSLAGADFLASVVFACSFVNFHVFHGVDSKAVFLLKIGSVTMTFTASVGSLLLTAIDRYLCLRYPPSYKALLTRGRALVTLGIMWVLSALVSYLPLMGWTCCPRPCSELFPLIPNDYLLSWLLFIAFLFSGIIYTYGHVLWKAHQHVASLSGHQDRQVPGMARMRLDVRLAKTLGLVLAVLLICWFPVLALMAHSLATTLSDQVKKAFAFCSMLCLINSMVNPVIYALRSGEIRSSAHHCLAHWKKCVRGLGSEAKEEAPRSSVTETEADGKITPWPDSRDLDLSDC
"IC50 ([1]; 500 pM [3H]-CP55940, CHO cell membrane fraction expressing human CB1 receptor, room temperature, 60 minutes, read-out: CB1 IC50 value)","IC50 ([2]; 500 pM [3H]-CP55940, CHO cell membrane fraction expressing human CB2 receptor, read-out: CB2 IC50 value)",Structure (SMILES),IC50 [1],IC50 [2],Test Results (body temperature-lowering action) [3],"IC50 ([1]; read-out: CB1 IC50 value, 500 pM [3H]-CP55940, CHO cell membrane fraction expressing human CB1 receptor, room temperature, 60 minutes)","IC50 ([2]; read-out: CB2 IC50 value, 500 pM [3H]-CP55940, CHO cell membrane fraction expressing human CB2 receptor)"
,,"Cc1c(NC(=O)CC(C)(C)C)c(C)c2c(c1C(C)O)OCC2c1ccc(C(C)C)cc1 (single isomer, unassigned) [Example 28, N-(7-(1-Hydroxyethyl)-3-(4-isopropylphenyl)-4,6-dimethyl-2,3-dihydro-1-benzofuran-5-yl)-3,3-dimethylbutanamide]",< 10 nM,< 10 nM,"Effective (estimated as effective if the compound of the present invention lowered the body temperature substantially by 1 °C or more when compared with the control group 30 minutes after administration of 1 mg/kg, i.p.)",,
,,"Cc1c(NC(=O)CC(C)(C)C)c(C)c2c(c1C(C)O)OCC2c1ccc(C(C)C)cc1 (single isomer, unassigned) [Example 29, N-(7-(1-Hydroxyethyl)-3-(4-isopropylphenyl)-4,6-dimethyl-2,3-dihydro-1-benzofuran-5-yl)-3,3-dimethylbutanamide]",,,"Effective (estimated as effective if the compound of the present invention lowered the body temperature substantially by 1 °C or more when compared with the control group 30 minutes after administration of 1 mg/kg, i.p.)",< 10 nM,< 10 nM
,,"CCC(O)c1c(C)c(NC(=O)CC(C)(C)C)c(C)c2c1OCC2c1ccc(C(C)C)cc1 (single isomer, unassigned) [Example 31, N-(7-(1-Hydroxypropyl)-3-(4-isopropylphenyl)-4,6-dimethyl-2,3-dihydro-1-benzofuran-5-yl)-3,3-dimethylbutanamide]",< 10 nM,< 10 nM,"Effective (estimated as effective if the compound of the present invention lowered the body temperature substantially by 1 °C or more when compared with the control group 30 minutes after administration of 1 mg/kg, i.p.)",,
,,"Cc1c(C)c2c(c(C)c1NC(=O)CC(C)(C)C)C(c1ccc(C(C)C)cc1)CO2 (stereo not drawn) [Example 1, N-(3-(4-Isopropylphenyl)-4,6,7-trimethyl-2,3-dihydro-1-benzofuran-5-yl)-3,3-dimethylbutanamide]",20 nM,< 10 nM,"Effective (estimated as effective if the compound of the present invention lowered the body temperature substantially by 1 °C or more when compared with the control group 30 minutes after administration of 1 mg/kg, i.p.)",,
,,"Cc1c(C)c2c(c(C)c1NC(=O)CC(C)(C)C)[C@@H](c1ccc(C(C)C)cc1)CO2 [Example 7, (+)-N-((3R)-3-(4-Isopropylphenyl)-4,6,7-trimethyl-2,3-dihydro-1-benzofuran-5-yl)-3,3-dimethylbutanamide]",< 10 nM,< 10 nM,"Effective (estimated as effective if the compound of the present invention lowered the body temperature substantially by 1 °C or more when compared with the control group 30 minutes after administration of 1 mg/kg, i.p.)",,
,,"CCC(=O)Nc1c(C)c(C)c2c(c1C)C(c1ccc(C(C)C)cc1)CO2 (stereo not drawn) [Example 9, N-(3-(4-Isopropylphenyl)-4,6,7-trimethyl-2,3-dihydro-1-benzofuran-5-yl)propionamide]",79 nM,11 nM,,,
,,"Cc1c(C)c2c(c(C)c1NC(=O)NC(C)(C)C)C(c1ccc(C(C)C)cc1)CO2 (stereo not drawn) [Example 14, N-(tert-Butyl)-N′-(3-(4-isopropylphenyl)-4,6,7-trimethyl-2,3-dihydro-1-benzofuran-5-yl)urea]",20 nM,< 10 nM,"Effective (estimated as effective if the compound of the present invention lowered the body temperature substantially by 1 °C or more when compared with the control group 30 minutes after administration of 1 mg/kg, i.p.)",,
,,"Cc1c(NC(=O)CC(C)(C)C)c(C)c2c(c1C(C)O)OCC2c1ccc(C(C)C)cc1 (stereo not drawn) [Example 22, N-(7-(1-Hydroxyethyl)-3-(4-isopropylphenyl)-4,6-dimethyl-2,3-dihydro-1-benzofuran-5-yl)-3,3-dimethylbutanamide]",11 nM,< 10 nM,"Effective (estimated as effective if the compound of the present invention lowered the body temperature substantially by 1 °C or more when compared with the control group 30 minutes after administration of 1 mg/kg, i.p.)",,
,,"CCc1c(C)c(NC(=O)CC(C)(C)C)c(C)c2c1OCC2c1ccc(C(C)C)cc1 (stereo not drawn) [Example 23, N-(7-Ethyl-3-(4-isopropylphenyl)-4,6-dimethyl-2,3-dihydro-1-benzofuran-5-yl)-3,3-dimethylbutanamide]",< 10 nM,< 10 nM,"Effective (estimated as effective if the compound of the present invention lowered the body temperature substantially by 1 °C or more when compared with the control group 30 minutes after administration of 1 mg/kg, i.p.)",,
,,"CC(=O)c1c(C)c(NC(=O)CC(C)(C)C)c(C)c2c1OCC2c1ccc(C(C)C)cc1 (stereo not drawn) [Example 32, N-(7-Acetyl-3-(4-isopropylphenyl)-4,6-dimethyl-2,3-dihydro-1-benzofuran-5-yl)-3,3-dimethylbutanamide]",< 10 nM,< 10 nM,"Effective (estimated as effective if the compound of the present invention lowered the body temperature substantially by 1 °C or more when compared with the control group 30 minutes after administration of 1 mg/kg, i.p.)",,
,,"Cc1c(NC(=O)CC(C)(C)C)c(C)c(C(C)(C)O)c2c1C(c1ccc(C(C)C)cc1)CO2 (stereo not drawn) [Example 33, N-(7-(1-Hydroxy-1-methylethyl)-3-(4-isopropylphenyl)-4,6-dimethyl-2,3-dihydro-1-benzofuran-5-yl)-3,3-dimethylbutanamide]",14 nM,< 10 nM,"Effective (estimated as effective if the compound of the present invention lowered the body temperature substantially by 1 °C or more when compared with the control group 30 minutes after administration of 1 mg/kg, i.p.)",,
,,"CCCc1c(C)c(NC(=O)CC(C)(C)C)c(C)c2c1OCC2c1ccc(C(C)C)cc1 (stereo not drawn) [Example 34, N-(3-(4-Isopropylphenyl)-4,6-dimethyl-7-propyl-2,3-dihydro-1-benzofuran-5-yl)-3,3-dimethylbutanamide]",< 10 nM,< 10 nM,"Effective (estimated as effective if the compound of the present invention lowered the body temperature substantially by 1 °C or more when compared with the control group 30 minutes after administration of 1 mg/kg, i.p.)",,
,,"Cc1c(Br)c2c(c(C)c1NC(=O)CC(C)(C)C)C(c1ccc(C(C)C)cc1)CO2 (stereo not drawn) [Example 35, N-(7-Bromo-3-(4-isopropylphenyl)-4,6-dimethyl-2,3-dihydro-1-benzofuran-5-yl)-3,3-dimethylbutanamide]",< 10 nM,< 10 nM,"Effective (estimated as effective if the compound of the present invention lowered the body temperature substantially by 1 °C or more when compared with the control group 30 minutes after administration of 1 mg/kg, i.p.)",,
,,"COc1c(C)c(NC(=O)CC(C)(C)C)c(C)c2c1OCC2c1ccc(C(C)C)cc1 (stereo not drawn) [Example 36, N-(3-(4-Isopropylphenyl)-7-methoxy-4,6-dimethyl-2,3-dihydro-1-benzofuran-5-yl)-3,3-dimethylbutanamide]",< 10 nM,< 10 nM,"Effective (estimated as effective if the compound of the present invention lowered the body temperature substantially by 1 °C or more when compared with the control group 30 minutes after administration of 1 mg/kg, i.p.)",,
110 nM,560 nM,CCOC(=O)C(C)(C)Oc1cc(C)cc(C)c1Cc1ccc(C(C)C)cc1 [Reference Example 153],,,,,
,,Cc1cc(C)c2c(c1)SCC2c1ccc(C(C)C)cc1 (stereo not drawn) [Reference Example 212],69 nM,< 10 nM,,,
,,Cc1ccc(C)c2c1OC(=O)C2c1ccc(C(C)C)cc1 (stereo not drawn) [Reference Example 230],55 nM,55 nM,,,
,,Cc1ccc(C)c(C(CO)c2ccc(C(C)C)cc2)c1O (stereo not drawn) [Reference Example 233],38 nM,47 nM,,,
,,Cc1c(C)c(C(CO)c2ccc(C(C)C)cc2)c(O)c(C)c1Br (stereo not drawn) [Reference Example 234],40 nM,31 nM,,,
